Results as given in patent US8735398B2 (Bristol-Myers Squibb Company, priority 2009, dated 2014).

system: HCV 1b genotype; assay: HCV replicon assay (HCV-neo replicon cells, wild-type); type: cell-based, Hepatitis C virus; conditions: HCV 1b genotype replicon; class symbol; read-out: EC50 Range against HCV 1b
Outline: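 HCV-neo replicon cells (wild-type) and replicon cells carrying NS5A resistance substitutions were treated with compounds; assay per O'Boyle et al. 2005, with luciferase-reporter read-out variants also used.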

**Q.** Which EC50 does the source give for `CN(C)[C@@H](C(=O)N1[C@H](C(=O)Nc2ccc(-c3cnc(-c4ccc(NC(=O)[C@@H]5C[C@@H]6C[C@@H]6N5C(=O)[C@@H](c5ccccc5)N(C)C)cc4)o3)cc2)C[C@@H]2C[C@@H]21)c1ccccc1` [CB-9, (1S,3S,5S,1′S,3′S,5′S)-N,N′-(1,3-oxazole-2,5-diyldi-4,1-phenylene)bis(2-((2R)-2-(dimethylamino)-2-phenylacetyl)-2-azabicyclo[3.1.0]hexane-3-carboxamide)] here?
**A.** The EC50 was less than 4.57 nM.

**Q.** Which EC50 does the source give for `Cn1ccnc1C(O)C(=O)N1CCC[C@H]1C(=O)Nc1ccc(-c2cnc(-c3ccc(NC(=O)[C@@H]4CCCN4C(=O)C(O)c4nccn4C)cc3)o2)cc1` (stereo partly drawn) [Example D-11, (2S,2′S)-N,N′-(4,4′-(oxazole-2,5-diyl)bis(4,1-phenylene))bis(1-(2-hydroxy-2-(1-methyl-1H-imidazol-2-yl)acetyl)pyrrolidine-2-carboxamide)] here?
**A.** The EC50 was 1000 to 10000 nM.

**Q.** Which EC50 does the source give for `O=C(Nc1ccc(-c2cnc(-c3ccc(NC(=O)[C@@H]4CCCN4C(=O)C(O)c4c[nH]c5cnccc45)cc3)o2)cc1)[C@@H]1CCCN1C(=O)C(O)c1c[nH]c2cnccc12` (stereo partly drawn) [Example D-17, (2S,2′S)-N,N′-(4,4′-(oxazole-2,5-diyl)bis(4,1-phenylene))bis(1-(2-hydroxy-2-(1H-pyrrolo[2,3-c]pyridin-3-yl)acetyl)pyrrolidine-2-carboxamide)] here?
**A.** The EC50 was 1000 to 10000 nM.

same assay, conditions: HCV 1b genotype replicon; class symbols; read-out: EC50 Range against HCV 1b

**Q.** With `CC(C)(C)O[C@@H]1C[C@@H](C(=O)Nc2ccc(-c3cnc(-c4ccc(NC(=O)[C@@H]5C[C@@H](OC(C)(C)C)CN5C(=O)Cc5ccccn5)cc4)o3)cc2)N(C(=O)Cc2ccccn2)C1` [XY-75, (2S,4R,2′S,4′R)-N,N′-(1,3-oxazole-2,5-diyldi-4,1-phenylene)bis(4-tert-butoxy-1-(2-pyridinylacetyl)-2-pyrrolidinecarboxamide)] as the compound, how does the EC50 read?
**A.** Its EC50 is 4.57 to 99 nM.

same assay, conditions: HCV 1b genotype replicon; read-out: EC50 1b

**Q.** With `Cn1ccnc1C(O)C(=O)N1CCC[C@H]1C(=O)Nc1ccc(-c2cnc(-c3ccc(NC(=O)[C@@H]4CCCN4C(=O)C(O)c4nccn4C)cc3)o2)cc1` (stereo partly drawn) [Example D-11, (2S,2′S)-N,N′-(4,4′-(oxazole-2,5-diyl)bis(4,1-phenylene))bis(1-(2-hydroxy-2-(1-methyl-1H-imidazol-2-yl)acetyl)pyrrolidine-2-carboxamide)] as the compound, how does the EC50 read?
**A.** Its EC50 is 2090 nM.

**Q.** For `O=C(Nc1ccc(-c2cnc(-c3ccc(NC(=O)[C@@H]4CCCN4C(=O)C(O)c4c[nH]c5cnccc45)cc3)o2)cc1)[C@@H]1CCCN1C(=O)C(O)c1c[nH]c2cnccc12` (stereo partly drawn) [Example D-17, (2S,2′S)-N,N′-(4,4′-(oxazole-2,5-diyl)bis(4,1-phenylene))bis(1-(2-hydroxy-2-(1H-pyrrolo[2,3-c]pyridin-3-yl)acetyl)pyrrolidine-2-carboxamide)], which EC50 is on record?
**A.** The EC50 was 6820 nM.

same assay, conditions: Hepatitis C virus, HCV 1b genotype replicon; class symbol; read-out: EC50 Range against HCV 1b

**Q.** For `CC(O)(C(=O)N1CCC[C@H]1C(=O)Nc1ccc(-c2ccc(-c3ccc(NC(=O)[C@@H]4CCCN4C(=O)[C@@](C)(O)c4ccccc4)cc3)o2)cc1)c1ccccc1` (stereo partly drawn) [JG-59, (2S)-1-((2S)-2-hydroxy-2-phenylpropanoyl)-N-(4-(5-(4-((((2S)-1-(2-hydroxy-2-phenylpropanoyl)-2-pyrrolidinyl)carbonyl)amino)phenyl)-2-furyl)phenyl)-2-pyrrolidinecarboxamide], which EC50 is on record?
**A.** The EC50 was less than 4.57 nM.

**Q.** How did the EC50 turn out when `C[C@H](NC(=O)[C@H](O)c1ccccc1)C(=O)Nc1ccc(-c2cnc(-c3ccc(NC(=O)[C@H](C)NC(=O)[C@H](O)c4ccccc4)cc3)o2)cc1` [OL-55, (2S,2′S)-N,N′-(1,3-oxazole-2,5-diyldi-4,1-phenylene)bis(2-(((2R)-2-hydroxy-2-phenylacetyl)amino)propanamide)] was run?
**A.** The EC50 was less than 4.57 nM.

**Q.** With `CC(C)C(=O)N1CCC[C@H]1C(=O)Nc1ccc(-c2cc(-c3ccc(NC(=O)[C@@H]4CCCN4C(=O)C(C)C)cc3)[nH]n2)cc1` [OL-31, (2S,2′S)-N,N′-(1H-pyrazole-3,5-diyldi-4,1-phenylene)bis(1-isobutyryl-2-pyrrolidinecarboxamide)] as the compound, how does the EC50 read?
**A.** The EC50 was 100 to 999 nM.

**Q.** How did the EC50 turn out when `CC(=O)N1CCC[C@H]1C(=O)Nc1ccc(-c2ccc(-c3ccc(NC(=O)[C@@H]4CCCN4C(C)=O)cc3)s2)cc1` [OL-24, (2S,2′S)-N,N′-(2,5-thienediyldi-4,1-phenylene)bis[1-acetyl-2-pyrrolidinecarboxamide]] was run?
**A.** Its EC50 is 100 to 999 nM.

**Q.** Which EC50 does the source give for `O=C(Nc1ccc(-c2nnc(-c3ccc(NC(=O)[C@@H]4CCCCN4C(=O)OCc4ccccc4)cc3)o2)cc1)[C@@H]1CCCCN1C(=O)OCc1ccccc1` [RK-4, dibenzyl (2S,2′S)-2,2′-(1,3,4-oxadiazole-2,5-diylbis(4,1-phenylenecarbamoyl))di(1-piperidinecarboxylate)] here?
**A.** Its EC50 is 100 to 999 nM.

**Q.** How did the EC50 turn out when `CSC[C@H](NC(=O)Cc1ccccc1)C(=O)Nc1ccc(-c2cnc(-c3ccc(NC(=O)[C@H](CSC)NC(=O)Cc4ccccc4)cc3)o2)cc1` [JG-14, (2R,2′R)-N,N′-(1,3-oxazole-2,5-diyldi-4,1-phenylene)bis(3-(methylsulfanyl)-2-((phenylacetyl)amino)propanamide)] was run?
**A.** The EC50 was 100 to 999 nM.

**Q.** For `O=C(C(=O)N1CCC[C@H]1C(=O)Nc1ccc(-c2cnc(-c3ccc(NC(=O)[C@@H]4CCCN4C(=O)C(=O)c4ccccc4)cc3)o2)cc1)c1ccccc1` [JG-27, (2S,2′S)-N,N′-(1,3-oxazole-2,5-diyldi-4,1-phenylene)bis(1-(oxo(phenyl)acetyl)-2-pyrrolidinecarboxamide)], which EC50 is on record?
**A.** Its EC50 is 4.57 to 99 nM.

**Q.** With `C[C@H](NC(=O)[C@@](C)(O)c1ccccc1)C(=O)Nc1ccc(-c2cnc(-c3ccc(NC(=O)[C@H](C)NC(=O)[C@@](C)(O)c4ccccc4)cc3)o2)cc1` [OL-56, ((2S,2′S)-N,N′-(1,3-oxazole-2,5-diylbis(4,1-phenyleneimino((2S)-1-oxo-1,2-propanediyl)))bis(2-hydroxy-2-phenylpropanamide))] as the compound, how does the EC50 read?
**A.** The EC50 was less than 4.57 nM.

**Q.** Which EC50 does the source give for `O=C(Nc1ccc(-c2nncn2-c2ccc(NC(=O)[C@@H]3C[C@@H](O)CN3C(=O)Cc3ccccc3)cc2)cc1)[C@@H]1C[C@@H](O)CN1C(=O)Cc1ccccc1` [OL-17, (2S,4R,2′S,4′R)-N,N′-(4H-1,2,4-triazole-3,4-diyldi-4,1-phenylene)bis[4-hydroxy-1-(phenylacetyl)-2-pyrrolidinecarboxamide]] here?
**A.** Its EC50 is 1000 to 10000 nM.

**Q.** `CN(C)[C@@H](C(=O)N1[C@H](C(=O)N2CCC[C@H]2C(=O)Nc2ccc(-c3cnc(-c4ccc(NC(=O)[C@@H]5CCCN5C(=O)[C@@H]5C[C@@H]6C[C@@H]6N5C(=O)[C@@H](c5ccccc5)N(C)C)cc4)o3)cc2)C[C@@H]2C[C@@H]21)c1ccccc1` [Example D-40, (2S,2′S)-N,N′-(1,3-oxazole-2,5-diyldi-4,1-phenylene)bis(1-(((1S,3S,5S)-2-((2R)-2-(dimethylamino)-2-phenylacetyl)-2-azabicyclo[3.1.0]hex-3-yl)carbonyl)-2-pyrrolidinecarboxamide)] was tested. Which EC50 did it give?
**A.** Its EC50 is 100 to 999 nM.

**Q.** How did the EC50 turn out when `O=C(Nc1ccc(-c2cnc(-c3ccc(NC(=O)[C@@H]4CCCN4C(=O)OCc4ccccc4)cc3)o2)cc1)[C@@H]1CCCN1C(=O)OCc1ccccc1` [JG-1, dibenzyl (2S,2′S)-2,2′-(1,3-oxazole-2,5-diylbis(4,1-phenylenecarbamoyl))di(1-pyrrolidinecarboxylate)] was run?
**A.** Its EC50 is less than 4.57 nM.

**Q.** `COC(C(=O)N1CCC[C@H]1C(=O)Nc1ccc(-c2nnc(-c3ccc(NC(=O)[C@@H]4CCCN4C(=O)C(OC)c4ccccc4)cc3)o2)cc1)c1ccccc1` (stereo partly drawn) [RK-11, (2S,2′S)-N,N′-(1,3,4-oxadiazole-2,5-diyldi-4,1-phenylene)bis(1-(methoxy(phenyl)acetyl)-2-pyrrolidinecarboxamide)] was tested. Which EC50 did it give?
**A.** Its EC50 is 100 to 999 nM.

**Q.** How did the EC50 turn out when `O=C(O)Cc1nc(-c2ccc(NC(=O)[C@@H]3CCCN3C(=O)OCc3ccccc3)cc2)c(-c2ccc(NC(=O)[C@@H]3CCCN3C(=O)OCc3ccccc3)cc2)o1` [OL-3, 4,5-bis[4-[[[(2S)-1-[(phenylmethoxy)carbonyl]-2-pyrrolidinyl]carbonyl]amino]phenyl]-2-oxazoleacetic acid] was run?
**A.** The EC50 was 1000 to 10000 nM.

**Q.** How did the EC50 turn out when `COCC[C@H](NC(=O)Cc1ccccc1)C(=O)Nc1ccc(-c2cnc(-c3ccc(NC(=O)[C@H](CCOC)NC(=O)Cc4ccccc4)cc3)o2)cc1` [JG-15, (2S,2′S)-N,N′-(1,3-oxazole-2,5-diyldi-4,1-phenylene)bis(4-methoxy-2-((phenylacetyl)amino)butanamide)] was run?
**A.** The EC50 was 100 to 999 nM.

same assay, conditions: Hepatitis C virus, HCV 1b genotype replicon; class symbols; read-out: EC50 Range against HCV 1b

**Q.** With `CC(C)(C)O[C@@H]1C[C@@H](C(=O)Nc2ccc(-c3cnc(-c4ccc(NC(=O)[C@@H]5C[C@@H](OC(C)(C)C)CN5C(=O)c5cccs5)cc4)o3)cc2)N(C(=O)c2cccs2)C1` [XY-76, (2S,4R,2′S,4′R)-N,N′-(1,3-oxazole-2,5-diyldi-4,1-phenylene)bis(4-tert-butoxy-1-(2-thienylcarbonyl)-2-pyrrolidinecarboxamide)] as the compound, how does the EC50 read?
**A.** Its EC50 is 1000 to 10000 nM.

**Q.** For `O=C(Nc1ccc(-c2cnc(-c3ccc(NC(=O)[C@@H]4CCCN4C(=O)c4ccccn4)cc3)o2)cc1)[C@@H]1CCCN1C(=O)c1ccccn1` [XY-6, (2S,2′S)-N,N′-(1,3-oxazole-2,5-diyldi-4,1-phenylene)bis(1-(2-pyridinylcarbonyl)-2-pyrrolidinecarboxamide)], which EC50 is on record?
**A.** The EC50 was 1000 to 10000 nM.

**Q.** For `N#CC1(C(=O)N2CCC[C@H]2C(=O)Nc2ccc(-c3cnc(-c4ccc(NC(=O)[C@@H]5CCCN5C(=O)C5(C#N)CC5)cc4)o3)cc2)CC1` [XY-2, (2S,2′S)-N,N′-(1,3-oxazole-2,5-diyldi-4,1-phenylene)bis(1-((1-cyanocyclopropyl)carbonyl)-2-pyrrolidinecarboxamide)], which EC50 is on record?
**A.** Its EC50 is 100 to 999 nM.

**Q.** `Cc1noc(C)c1C(=O)N1CCC[C@H]1C(=O)Nc1ccc(-c2cnc(-c3ccc(NC(=O)[C@@H]4CCCN4C(=O)c4c(C)noc4C)cc3)o2)cc1` [XY-28, (2S,2′S)-N,N′-(1,3-oxazole-2,5-diyldi-4,1-phenylene)bis(1-((3,5-dimethyl-4-isoxazolyl)carbonyl)-2-pyrrolidinecarboxamide)] was tested. Which EC50 did it give?
**A.** Its EC50 is 100 to 999 nM.

**Q.** With `O=C(Nc1ccc(-c2cnc(-c3ccc(NC(=O)[C@@H]4CCCN4C(=O)C(O)Cc4c[nH]c5ccccc45)cc3)o2)cc1)[C@@H]1CCCN1C(=O)C(O)Cc1c[nH]c2ccccc12` (stereo partly drawn) [JR-5, (2S,2′S)-N,N′-(2,5-oxazolediyldi-4,1-phenylene)bis[1-[2-hydroxy-3-(1H-indol-3-yl)-1-oxopropyl]-2-pyrrolidinecarboxamide]] as the compound, how does the EC50 read?
**A.** Its EC50 is 100 to 999 nM.

**Q.** How did the EC50 turn out when `O=C(Nc1ccc(-c2cnc(-c3ccc(NC(=O)[C@@H]4C[C@@H](O)CN4C(=O)CC4CC4)cc3)o2)cc1)[C@@H]1C[C@@H](O)CN1C(=O)CC1CC1` [XY-44, (2S,4R,2′S,4′R)-N,N′-(1,3-oxazole-2,5-diyldi-4,1-phenylene)bis(1-(cyclopropylacetyl)-4-hydroxy-2-pyrrolidinecarboxamide)] was run?
**A.** Its EC50 is 1000 to 10000 nM.

**Q.** With `CCn1c(=O)n(C(C)C(=O)N2CCC[C@H]2C(=O)Nc2ccc(-c3cnc(-c4ccc(NC(=O)[C@@H]5CCCN5C(=O)C(C)n5c(=O)n(CC)c6ccccc65)cc4)o3)cc2)c2ccccc21` (stereo partly drawn) [JR-10, (2S,2′S)-N,N′-(2,5-oxazolediyldi-4,1-phenylene)bis[1-[2-(3-ethyl-2,3-dihydro-2-oxo-1H-benzimidazol-1-yl)-1-oxopropyl]-2-pyrrolidinecarboxamide]] as the compound, how does the EC50 read?
**A.** The EC50 was 1000 to 10000 nM.

same assay, conditions: Hepatitis C virus, HCV 1b genotype replicon; read-out: EC50 1b

**Q.** Which EC50 does the source give for `CC(=O)N1CCC[C@H]1C(=O)Nc1ccc(-c2ccc(-c3ccc(NC(=O)[C@@H]4CCCN4C(C)=O)cc3)s2)cc1` [OL-24, (2S,2′S)-N,N′-(2,5-thienediyldi-4,1-phenylene)bis[1-acetyl-2-pyrrolidinecarboxamide]] here?
**A.** The EC50 was 620 nM.
